In US20260007133A1, “HERBICIDAL COMPOSITION COMPRISING AZINE COMPOUNDS” (BASF SE, priority 2022, published 2026):
Where two headings read alike, the source gives them in different places.

What was measured:
Assay type in all cases: in vivo
Euphorbia heterophylla = test: Greenhouse post-emergence (POST) herbicidal test on EPHHL; settings: Euphorbia heterophylla, post-emergence; for inhibition at 2 g/ha: use rate 2 gai/ha; for inhibition at 4 g/ha: use rate 4 gai/ha; for inhibition at 8 g/ha: use rate 8 gai/ha
Summary of the method: (§1)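 Sow or transplant seedlings into loamy-sand pots; grow to 3–15 cm; spray aqueous suspension/emulsion of actives from a 5% by weight emulsion concentrate; hold at 10-25° C or 20-35° C depending on species; score injury 0–100 at 20 DAT.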

Ipomoea hederacea [1] = test: Greenhouse post-emergence (POST) herbicidal test on IPOHE; settings: Ipomoea hederacea, post-emergence
Summary of the method: as §1

AMAPA = test: Greenhouse pre-emergence (PRE) herbicidal test on AMAPA; settings: pre-emergence
Ipomoea hederacea [2] = test: Greenhouse pre-emergence (PRE) herbicidal test on IPOHE; settings: Ipomoea hederacea, pre-emergence; for inhibition at 8 g/ha: use rate 8 gai/ha
Text: (§2) The culture containers used were plastic pots containing loamy sand with approximately 3.0% of humus as substrate. The seeds of the test plants were sown separately for each species.
(§3) For the pre-emergence treatment, the active compounds, suspended or emulsified in water, were applied directly after sowing by means of finely distributing nozzles. The containers were irrigated gently to promote germination and growth and subsequently covered with transparent plastic hoods until the plants had rooted. This cover caused uniform germination of the test plants unless this was adversely affected by the active compounds.
(§4) Depending on the species, the plants were kept at 10-25° C. and 20-35° C., respectively.
(§5) The test period extended over 2 to 4 weeks. During this time, the plants were tended and their response to the individual treatments was evaluated.
(§6) Evaluation was carried out using a scale from 0 to 100. 100 means no emergence of the plants, or complete destruction of at least the above-ground parts, and 0 means no damage or normal course of growth. A good herbicidal activity is given at values of at least 70, and very good herbicidal activity is given at values of at least 85.
(§7) If not stated differently, the respective components A and B, and if appropriate, C were formulated as a 5% by weight strength emulsion concentrate and, with addition of the amount of solvent system, introduced into the spray liquor used for applying the active compound.
(§8) As indicated application was either post emergent (POST) at the respective growth stage (GS) of the weed (BBCH code), or pre-emergent (PRE).
(§9) Assessment was 20 days after treatment (DAT).

Alopecurus myosuroides = test: Greenhouse pre-emergence (PRE) herbicidal test on ALOMY; settings: Alopecurus myosuroides, pre-emergence
Summary of the method: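 Scoring ran from 0 (normal growth) to 100 (no emergence or above-ground parts fully destroyed) and was done 20 DAT. Application was pre-emergent in pots of loamy sand (~3.0% humus) sown per species. Plants grew at 10-25° C or 20-35° C by species.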

Echinochloa crus-galli = test: Greenhouse post-emergence (POST) herbicidal test on ECHCG
Summary of the method: as §1

Ambrosia artemisiifolia = test: Greenhouse pre-emergence (PRE) herbicidal test on AMBEL; settings: Ambrosia artemisiifolia, pre-emergence
Setaria viridis = test: Greenhouse pre-emergence (PRE) herbicidal test on SETVI; settings: Setaria viridis, pre-emergence, 480 h, 20 DAT
Summary of the method: (§10)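 Visual rating on a 0 (normal growth) to 100 (no emergence or above-ground kill) scale at 20 DAT. Treatment was pre-emergence spray of aqueous suspension/emulsion right after sowing into loamy sand with ~3.0% humus; covered until rooted, grown at 10-25° C or 20-35° C depending on species.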

Avena fatua = test: Greenhouse pre-emergence (PRE) herbicidal test on AVEFA; settings: use rate 2 gai/ha
Text: as §2, §3, §4, §5, §6, §7, §8, §9

Galium aparine = test: Greenhouse pre-emergence (PRE) herbicidal test on GALAP; settings: Galium aparine, pre-emergence, PRE, GALAP
Summary of the method: as §10

[3] = 480 h, POST, EPHHL, 20 DAT, read-out: solo application % activity

**Q.** How did the inhibition at 2 g/ha (Euphorbia heterophylla; 480 h, EPHHL POST, 20 DAT, read-out: % activity) turn out when `COc1c(Cl)cc(F)c(F)c1Nc1nc(N)nc(C(C)(C)F)n1` [Compound I-3] was run?
**A.** 25%

**Q.** And the pest or weed control at 8 g/ha (Euphorbia heterophylla; 480 h, POST, 8 gai/ha, 20 DAT)?
**A.** 60%

**Q.** And the inhibition at 2 g/ha (Euphorbia heterophylla; [3])?
**A.** 20%

**Q.** And the inhibition at 4 g/ha (Euphorbia heterophylla; 480 h, POST, EPHHL, 20 DAT)?
**A.** 65%

**Q.** What about the inhibition at 8 g/ha (Euphorbia heterophylla; [3]) of the same molecule?
**A.** 50%

**Q.** And the inhibition at 8 g/ha (Euphorbia heterophylla; EPHHL POST, read-out: % activity)?
**A.** 60%

**Q.** And the inhibition at 4 g/ha (Euphorbia heterophylla; POST, EPHHL)?
**A.** 60%

**Q.** And the pest or weed control at 8 g/ha (Ipomoea hederacea [1]; 480 h, POST, 8 gai/ha, 20 DAT)?
**A.** 90%

**Q.** What about the inhibition at 2 g/ha (Ipomoea hederacea [1]; 480 h, POST, IPOHE, 2 gai/ha, 20 DAT, read-out: % activity solo application) of the same molecule?
**A.** 80%

**Q.** And the inhibition at 8 g/ha (Ipomoea hederacea [1]; 480 h, POST, IPOHE, 8 gai/ha, 20 DAT, read-out: % activity solo application)?
**A.** 70%

**Q.** What about the inhibition at 2 g/ha (Ipomoea hederacea [1]; IPOHE POST, use rate 2 gai/ha, read-out: % activity) of the same molecule?
**A.** 65%

**Q.** What about the inhibition at 1 g/ha (AMAPA; 240 h, use rate 1 gai/ha, 10 DAT) of the same molecule?
**A.** 40%

**Q.** And the inhibition at 2 g/ha (AMAPA; 240 h, use rate 2 gai/ha, 10 DAT)?
**A.** 60%

**Q.** And the inhibition at 8 g/ha (AMAPA; 480 h, use rate 8 gai/ha, 20 DAT)?
**A.** 60%

**Q.** And the inhibition at 4 g/ha (Ipomoea hederacea [2]; 480 h, PRE, IPOHE, use rate 4 gai/ha, 20 DAT)?
**A.** 5%

**Q.** What about the inhibition at 8 g/ha (Ipomoea hederacea [2]; 480 h, PRE, IPOHE, 20 DAT) of the same molecule?
**A.** 30%

**Q.** And the inhibition at 16 g/ha (Ipomoea hederacea [2]; 480 h, PRE, IPOHE, use rate 16 gai/ha, 20 DAT)?
**A.** 40%

**Q.** What about the inhibition at 32 g/ha (Ipomoea hederacea [2]; 480 h, PRE, IPOHE, use rate 32 gai/ha, 20 DAT) of the same molecule?
**A.** 40%

**Q.** What about the inhibition at 8 g/ha (Ipomoea hederacea [2]; IPOHE PRE) of the same molecule?
**A.** 35%

**Q.** And the pest or weed control at 2 g/ha (Alopecurus myosuroides; 480 h, PRE, 2 gai/ha, 20 DAT, read-out: % activity)?
**A.** 10%

**Q.** And the pest or weed control at 8 g/ha (Alopecurus myosuroides; 480 h, PRE, 8 gai/ha, 20 DAT)?
**A.** 70%

**Q.** And the inhibition at 2 g/ha (Alopecurus myosuroides; 480 h, PRE, ALOMY, 2 gai/ha, 20 DAT, read-out: % activity solo application)?
**A.** 5%

**Q.** And the inhibition at 8 g/ha (Alopecurus myosuroides; 480 h, PRE, ALOMY, 8 gai/ha, 20 DAT, read-out: % activity solo application)?
**A.** 90%

**Q.** And the inhibition at 8 g/ha (Alopecurus myosuroides; 480 h, PRE, ALOMY, use rate 8 gai/ha, 20 DAT, read-out: solo application % activity)?
**A.** 90%

**Q.** And the inhibition at 2 g/ha (Alopecurus myosuroides; 480 h, PRE, use rate 2 gai/ha, 20 DAT, read-out: % activity)?
**A.** 65%

**Q.** And the inhibition at 2 g/ha (Alopecurus myosuroides; ALOMY PRE, use rate 2 gai/ha, read-out: % activity)?
**A.** 25%

**Q.** And the inhibition at 4 g/ha (Alopecurus myosuroides; PRE, ALOMY, use rate 4 gai/ha)?
**A.** 90%

**Q.** What about the “% activity” value (Echinochloa crus-galli; ECHCG POST, use rate 2 gai/ha) of the same molecule?
**A.** 25%

**Q.** And the “% activity” value (Echinochloa crus-galli; ECHCG POST, use rate 8 gai/ha)?
**A.** 40%

**Q.** And the inhibition at 2 g/ha (Echinochloa crus-galli; Echinochloa crus-galli, post-emergence, 432 h, POST, ECHCG, 2 gai/ha, 18 DAT, read-out: % activity solo application)?
**A.** 0%

**Q.** What about the pest or weed control at 2 g/ha (Echinochloa crus-galli; Echinochloa crus-galli, post-emergence, 432 h, POST, ECHCG, I-3 solo 2 gai/ha, 18 DAT) of the same molecule?
**A.** 0%

**Q.** What about the inhibition at 2 g/ha (Echinochloa crus-galli; Echinochloa crus-galli, post-emergence, 480 h, ECHCG POST, 20 DAT, use rate 2 gai/ha, read-out: % activity) of the same molecule?
**A.** 10%

**Q.** What about the inhibition at 8 g/ha (Echinochloa crus-galli; Echinochloa crus-galli, post-emergence, 480 h, ECHCG POST, 20 DAT, use rate 8 gai/ha, read-out: % activity) of the same molecule?
**A.** 55%

**Q.** What about the pest or weed control at 2 g/ha (Echinochloa crus-galli; Echinochloa crus-galli, post-emergence, 480 h, POST, 2 gai/ha, 20 DAT) of the same molecule?
**A.** 10%

**Q.** What about the inhibition at 2 g/ha (Echinochloa crus-galli; Echinochloa crus-galli, post-emergence, 480 h, POST, ECHCG, use rate 2 gai/ha, 20 DAT, read-out: solo application % activity) of the same molecule?
**A.** 0%

**Q.** What about the inhibition at 4 g/ha (Echinochloa crus-galli; Echinochloa crus-galli, post-emergence, 480 h, POST, ECHCG, use rate 4 gai/ha, 20 DAT) of the same molecule?
**A.** 35%

**Q.** What about the inhibition at 8 g/ha (Echinochloa crus-galli; Echinochloa crus-galli, post-emergence, 480 h, POST, ECHCG, use rate 8 gai/ha, 20 DAT, read-out: % activity) of the same molecule?
**A.** 50%

**Q.** And the inhibition at 8 g/ha (Echinochloa crus-galli; Echinochloa crus-galli, post-emergence, 480 h, POST, ECHCG, use rate 8 gai/ha, 20 DAT, read-out: solo application % activity)?
**A.** 10%

**Q.** What about the inhibition at 8 g/ha (Echinochloa crus-galli; Echinochloa crus-galli, post-emergence, ECHCG POST, use rate 8 gai/ha, read-out: % activity) of the same molecule?
**A.** 35%

**Q.** What about the inhibition at 2 g/ha (Echinochloa crus-galli; Echinochloa crus-galli, post-emergence, POST, ECHCG, use rate 2 gai/ha, read-out: % activity) of the same molecule?
**A.** 30%

**Q.** What about the inhibition at 2 g/ha (Ambrosia artemisiifolia; 240 h, PRE, use rate 2 gai/ha, 10 DAT, read-out: % activity) of the same molecule?
**A.** 10%

**Q.** What about the inhibition at 8 g/ha (Ambrosia artemisiifolia; 240 h, PRE, use rate 8 gai/ha, 10 DAT, read-out: % activity) of the same molecule?
**A.** 65%

**Q.** What about the inhibition at 2 g/ha (Ambrosia artemisiifolia; 480 h, AMBEL PRE, 20 DAT, use rate 2 gai/ha, read-out: % activity) of the same molecule?
**A.** 50%

**Q.** And the inhibition at 2 g/ha (Ambrosia artemisiifolia; 480 h, PRE, AMBEL, 2 gai/ha, 20 DAT, read-out: % activity solo application)?
**A.** 10%

**Q.** And the inhibition at 8 g/ha (Ambrosia artemisiifolia; 480 h, PRE, AMBEL, 8 gai/ha, 20 DAT, read-out: % activity solo application)?
**A.** 45%

**Q.** What about the inhibition at 2 g/ha (Ambrosia artemisiifolia; 480 h, PRE, AMBEL, use rate 2 gai/ha, 20 DAT, read-out: solo application % activity) of the same molecule?
**A.** 10%

**Q.** And the inhibition at 8 g/ha (Ambrosia artemisiifolia; 480 h, PRE, AMBEL, use rate 8 gai/ha, 20 DAT, read-out: solo application % activity)?
**A.** 45%

**Q.** And the inhibition at 8 g/ha (Ambrosia artemisiifolia; 480 h, PRE, use rate 8 gai/ha, 20 DAT, read-out: % activity)?
**A.** 90%

**Q.** And the inhibition at 4 g/ha (Ambrosia artemisiifolia; PRE, AMBEL, use rate 4 gai/ha)?
**A.** 25%

**Q.** And the pest or weed control at 2 g/ha (Setaria viridis; PRE, 2 gai/ha)?
**A.** 60%

**Q.** What about the inhibition at 2 g/ha (Setaria viridis; PRE, SETVI, 2 gai/ha, read-out: % activity solo application) of the same molecule?
**A.** 50%

**Q.** And the inhibition at 2 g/ha (Setaria viridis; PRE, SETVI, use rate 2 gai/ha, read-out: solo application % activity)?
**A.** 20%

**Q.** And the inhibition at 2 g/ha (Setaria viridis; SETVI PRE, use rate 2 gai/ha, read-out: % activity)?
**A.** 60%

**Q.** And the inhibition at 2 g/ha (Avena fatua)?
**A.** 20%

**Q.** And the inhibition at 2 g/ha (Galium aparine; use rate 2 gai/ha)?
**A.** 15%

**Q.** And the inhibition at 8 g/ha (Galium aparine; use rate 8 gai/ha)?
**A.** 75%
